Test results taken from ChEMBL document CHEMBL3045551, “Synthesis and Acaricidal Activity of N-(1,3,4-Thiadiazol-2-yl)cyclopropanecarboxamides” (2003).

Tests used:
Format in all cases: functional
Tetranychus urticae [1] = assay: Acaricidal activity against Tetranychus urticae (two-spotted spider mite) assessed as mite mortality at 500 ppm relative to untreated control
Tetranychus urticae [2] = assay: Acaricidal activity against Tetranychus urticae (two-spotted spider mite) assessed as mite mortality at 50 ppm relative to untreated control
Tetranychus urticae [3] = assay: Acaricidal activity against Tetranychus urticae (two-spotted spider mite) assessed as mite mortality at 12.5 ppm relative to untreated control
Tetranychus urticae [4] = assay: Acaricidal activity against Tetranychus urticae (two-spotted spider mite) assessed as mite mortality at 200 ppm relative to untreated control

| SMILES | mortality at 500 ppm (Tetranychus urticae [1]) [%] | mortality at 50 ppm (Tetranychus urticae [2]) [%] | mortality at 12.5 ppm (Tetranychus urticae [3]) [%] | mortality at 200 ppm (Tetranychus urticae [4]) [%] |
| --- | --- | --- | --- | --- |
| CCc1nnc(NC(=O)C2(C)CC2(Cl)Cl)s1 (stereo unspecified) | 0 | – | – | – |
| Cc1nnc(NC(=O)C2(C)CC2(Cl)Cl)s1 (stereo unspecified) | 0 | – | – | – |
| CC1(C(=O)Nc2nncs2)CC1(Cl)Cl (stereo unspecified) | 0 | – | – | – |
| CC1(C(=O)Nc2nnc(C(F)(F)C(F)(F)C(F)(F)C(F)(F)F)s2)CC1(Cl)Cl (stereo unspecified) | 0 | – | – | – |
| CC1(C(=O)Nc2nnc(C(F)(F)C(F)(F)C(F)(F)F)s2)CC1(Cl)Cl (stereo unspecified) | 100 | 100 | 80 | 100 |
| CC1(C(=O)Nc2nnc(C(F)(F)C(F)(F)F)s2)CC1(Cl)Cl (stereo unspecified) | 100 | 100 | 30 | 100 |
| CC1(C(=O)Nc2nnc(C(F)(F)F)s2)CC1(Br)Br (stereo unspecified) | 100 | 30 | 0 | 100 |
| CC1(C(=O)Nc2nnc(C(F)(F)F)s2)CC1 | 0 | – | – | – |
| CC(C)C1(C(=O)Nc2nnc(C(F)(F)F)s2)CC1(Cl)Cl (stereo unspecified) | 80 | 30 | 30 | 80 |
| CCCCC1(C(=O)Nc2nnc(C(F)(F)F)s2)CC1(Cl)Cl (stereo unspecified) | 80 | – | – | 30 |
| CCCC1(C(=O)Nc2nnc(C(F)(F)F)s2)CC1(Cl)Cl (stereo unspecified) | 100 | 80 | 0 | 100 |
| CCC1(C(=O)Nc2nnc(C(F)(F)F)s2)CC1(Cl)Cl (stereo unspecified) | 100 | 100 | 0 | 100 |
| O=C(Nc1nnc(C(F)(F)F)s1)C1CC1(Cl)Cl (stereo unspecified) | 0 | – | – | – |
| CC1(C(=O)Nc2nnc(C(F)(F)F)s2)CC1(Cl)Cl (stereo unspecified) | 100 | 100 | 30 | 100 |
